Drawing on patent US20240109900A1, “AZABICYCLIC SHP2 INHIBITORS” (IRBM S.P.A., priority 2021, published 2024), this text covers IC50 for 21 molecules.

Assay [1] has as its target SHP-2 enzyme (Met1-Leu525) (Homo sapiens (Human), UniProt Q06124). Briefly: SHP2 inhibition enzymatic assay. The assay is classed as biochemical. Conditions: 0.5 nM SHP-2 activated by 500 nM IRS1 peptide, 75 μM DiFMUP substrate; read-out: SHP2wt-IC50. In outline: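 SHP-2 (Met1-Leu525), 0.5 nM, activated with 500 nM IRS1 bis-phosphopeptide, preincubated 30 min with compounds in HEPES pH 7.2 buffer with 5 mM DTT. 75 μM DiFMUP added for 30 min at room temperature, stopped with bpV; fluorescence read. IC50 from four-parameter logistic fit of % inhibition.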

Assay [2] deals with ERK phosphorylation in KYSE-520 cells. Nature of the assay: Phospho-ERK cellular assay. The note with it: Homo sapiens, KYSE-520, 2 h, KYSE-520 cells, 2 h at 37° C., phospho-ERK1/2 (Thr202/Tyr204) TR-FRET; read-out: PERK IC50. The class given is cell-based. In outline: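 TR-FRET read-out of ERK1/2 Thr202/Tyr204 phosphorylation was taken after overnight antibody incubation at room temperature. Before that, KYSE-520 cells were treated 2 h at 37 °C with compound dilutions and lysed 30 min. Percent inhibition relative to vehicle and cell-free wells was fitted four-parametrically to give IC50.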

A value given as a limit tells only on which side of the number the result lay.

Sequence of SHP-2 enzyme (Met1-Leu525) (Q06124 1-525): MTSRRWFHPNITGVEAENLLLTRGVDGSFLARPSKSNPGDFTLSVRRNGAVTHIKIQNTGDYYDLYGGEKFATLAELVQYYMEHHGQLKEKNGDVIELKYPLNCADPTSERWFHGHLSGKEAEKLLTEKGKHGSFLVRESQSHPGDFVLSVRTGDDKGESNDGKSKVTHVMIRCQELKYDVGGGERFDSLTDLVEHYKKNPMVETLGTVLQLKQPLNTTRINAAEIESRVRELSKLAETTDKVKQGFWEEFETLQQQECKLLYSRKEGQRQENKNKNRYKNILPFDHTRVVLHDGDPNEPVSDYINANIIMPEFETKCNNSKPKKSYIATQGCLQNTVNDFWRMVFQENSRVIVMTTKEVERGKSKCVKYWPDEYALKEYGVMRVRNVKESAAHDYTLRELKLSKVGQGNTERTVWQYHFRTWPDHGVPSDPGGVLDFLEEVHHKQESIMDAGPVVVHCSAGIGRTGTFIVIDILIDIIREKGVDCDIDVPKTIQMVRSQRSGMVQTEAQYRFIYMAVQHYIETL

Turning to `Cc1nccc(-c2n[nH]c3nc(N4CC[C@@H]5[C@H](C4)[C@@]5(CN)c4ccccc4F)cnc23)c1F` [Example 195, ((1S,6R,7R)-3-(3-(3-fluoro-2-methylpyridin-4-yl)-1H-pyrazolo[3,4-b]pyrazin-6-yl)-7-(2-fluorophenyl)-3-azabicyclo[4.1.0]heptan-7-yl)methanamine], the values for the IC50 in assay [1] and in assay [2] were less than 0.5 µM and less than 1 µM, respectively.
The matching figures for `NC[C@]1(c2ccccc2F)[C@@H]2CCN(c3cnc4c(-c5cc(N)ncc5Cl)n[nH]c4n3)C[C@@H]21` [Example 196, 4-(6-((1S,6R,7R)-7-(aminomethyl)-7-(2-fluorophenyl)-3-azabicyclo[4.1.0]heptan-3-yl)-1H-pyrazolo[3,4-b]pyrazin-3-yl)-5-chloropyridin-2-amine]: less than 0.5 µM and less than 1 µM.
As to `NC[C@]1(c2ccccc2F)[C@@H]2CCN(c3cnc4c(-c5ccnc(NC6CC6)c5Cl)n[nH]c4n3)C[C@@H]21` [Example 197, 4-(6-((1S,6R,7R)-7-(aminomethyl)-7-(2-fluorophenyl)-3-azabicyclo[4.1.0]heptan-3-yl)-1H-pyrazolo[3,4-b]pyrazin-3-yl)-3-chloro-N-cyclopropylpyridin-2-amine], the half-inhibitory concentration (IC50) in assay [1] was less than 0.5 µM; in assay [2], less than 1 µM.
The matching figures for `Cn1c(-c2n[nH]c3nc(N4CC[C@@H]5[C@H](C4)[C@@]5(CN)c4ccccc4F)cnc23)cccc1=O` [Example 198, 6-(6-((1S,6R,7R)-7-(aminomethyl)-7-(2-fluorophenyl)-3-azabicyclo[4.1.0]heptan-3-yl)-1H-pyrazolo[3,4-b]pyrazin-3-yl)-1-methylpyridin-2(1H)-one]: less than 0.5 µM and less than 1 µM.
The matching figures for `Cc1c(-c2n[nH]c3nc(N4CC[C@@H]5[C@H](C4)[C@@]5(CN)c4ccc(F)cc4F)cnc23)ccc2nn(C)cc12` [Example 199, ((1S,6R,7R)-7-(2,4-difluorophenyl)-3-(3-(2,4-dimethyl-2H-indazol-5-yl)-1H-pyrazolo[3,4-b]pyrazin-6-yl)-3-azabicyclo[4.1.0]heptan-7-yl)methanamine]: less than 0.5 µM and less than 1 µM.
In the case of `COc1ccc(-c2n[nH]c3nc(N4CC[C@@H]5[C@H](C4)[C@@]5(CN)c4ccc(F)cc4F)cnc23)c2cccnc12` [Example 200, ((1S,6R,7R)-7-(2,4-difluorophenyl)-3-(3-(8-methoxyquinolin-5-yl)-1H-pyrazolo[3,4-b]pyrazin-6-yl)-3-azabicyclo[4.1.0]heptan-7-yl)methanamine], the half-inhibitory concentration (IC50) in assay [1] is less than 0.5 µM; in assay [2] it was less than 1 µM.
On the same counts, the results for `COc1ccc(-c2n[nH]c3nc(N4CC[C@@H]5[C@H](C4)[C@@]5(CN)c4ccccc4F)cnc23)c2ccc(C)nc12` [Example 201, ((1S,6R,7R)-7-(2-fluorophenyl)-3-(3-(8-methoxy-2-methylquinolin-5-yl)-1H-pyrazolo[3,4-b]pyrazin-6-yl)-3-azabicyclo[4.1.0]heptan-7-yl)methanamine] are less than 0.5 µM and less than 1 µM.
The matching figures for `Cn1cc2c(C(F)F)c(-c3n[nH]c4nc(N5CC[C@@H]6[C@H](C5)[C@@]6(CN)c5ccccc5F)cnc34)ccc2n1` [Example 202, ((1S,6R,7R)-3-(3-(4-(difluoromethyl)-2-methyl-2H-indazol-5-yl)-1H-pyrazolo[3,4-b]pyrazin-6-yl)-7-(2-fluorophenyl)-3-azabicyclo[4.1.0]heptan-7-yl)methanamine]: less than 0.5 µM and less than 1 µM.
The matching figures for `Cn1cc2c(Cl)c(-c3n[nH]c4nc(N5CC[C@@H]6[C@H](C5)[C@@]6(CN)c5ccccc5F)cnc34)ccc2n1` [Example 203, ((1S,6R,7R)-3-(3-(4-chloro-2-methyl-2H-indazol-5-yl)-1H-pyrazolo[3,4-b]pyrazin-6-yl)-7-(2-fluorophenyl)-3-azabicyclo[4.1.0]heptan-7-yl)methanamine]: less than 0.5 µM and less than 1 µM.
Turning to `Cc1c(-c2n[nH]c3nc(N4CC[C@@H]5[C@H](C4)[C@@]5(CN)c4ccccc4F)cnc23)ccc2c1nnn2C` [Example 204, ((1S,6R,7R)-3-(3-(1,4-dimethyl-1H-benzo[d][1,2,3]triazol-5-yl)-1H-pyrazolo[3,4-b]pyrazin-6-yl)-7-(2-fluorophenyl)-3-azabicyclo[4.1.0]heptan-7-yl)methanamine], the IC50 is less than 0.5 µM in assay [1] and less than 1 µM in assay [2].
On the same counts, the results for `Cc1c(-c2n[nH]c3nc(N4CC[C@@H]5[C@H](C4)[C@@]5(CN)c4ccccc4F)cnc23)ccc2nn(C)nc12` [Example 205, ((1S,6R,7R)-3-(3-(2,4-dimethyl-2H-benzo[d][1,2,3]triazol-5-yl)-1H-pyrazolo[3,4-b]pyrazin-6-yl)-7-(2-fluorophenyl)-3-azabicyclo[4.1.0]heptan-7-yl)methanamine] are less than 0.5 µM and less than 1 µM.
The matching figures for `CC1(C)C(=O)Nc2ccc(-c3n[nH]c4nc(N5CC[C@@H]6[C@H](C5)[C@@]6(CN)c5ccccc5F)cnc34)cc21` [Example 206, 5-(6-((1S,6R,7R)-7-(aminomethyl)-7-(2-fluorophenyl)-3-azabicyclo[4.1.0]heptan-3-yl)-1H-pyrazolo[3,4-b]pyrazin-3-yl)-3,3-dimethylindolin-2-one]: less than 0.5 µM and less than 1 µM.
On the same counts, the results for `NC[C@]1(c2ccccc2F)[C@@H]2CCN(c3cnc4c(-c5ccc6c(c5Cl)NC(=O)CO6)n[nH]c4n3)C[C@@H]21` [Example 207, 6-(6-((1S,6R,7R)-7-(aminomethyl)-7-(2-fluorophenyl)-3-azabicyclo[4.1.0]heptan-3-yl)-1H-pyrazolo[3,4-b]pyrazin-3-yl)-5-chloro-2H-benzo[b][1,4]oxazin-3(4H)-one] are less than 0.5 µM and less than 1 µM.
With `CCn1cc2c(Cl)c(-c3n[nH]c4nc(N5CC[C@@H]6[C@H](C5)[C@@]6(CN)c5ccccc5F)cnc34)ccc2n1` [Example 208, ((1S,6R,7R)-3-(3-(4-chloro-2-ethyl-2H-indazol-5-yl)-1H-pyrazolo[3,4-b]pyrazin-6-yl)-7-(2-fluorophenyl)-3-azabicyclo[4.1.0]heptan-7-yl)methanamine], the figures for the 50% inhibitory concentration (IC50) in assay [1] and in assay [2] were less than 0.5 µM and less than 1 µM, respectively.
The matching figures for `NC[C@]1(c2ccccc2F)[C@@H]2CCN(c3cnc4c(-c5cccc6c(=O)[nH]ccc56)n[nH]c4n3)C[C@@H]21` [Example 209, 5-(6-((1S,6R,7R)-7-(aminomethyl)-7-(2-fluorophenyl)-3-azabicyclo[4.1.0]heptan-3-yl)-1H-pyrazolo[3,4-b]pyrazin-3-yl)isoquinolin-1(2H)-one]: less than 0.5 µM and less than 1 µM.
The matching figures for `NC[C@]1(c2ccccc2F)[C@@H]2CCN(c3cnc4c(-c5cccc6[nH]c(=O)ccc56)n[nH]c4n3)C[C@@H]21` [Example 210, 5-(6-((1S,6R,7R)-7-(aminomethyl)-7-(2-fluorophenyl)-3-azabicyclo[4.1.0]heptan-3-yl)-1H-pyrazolo[3,4-b]pyrazin-3-yl)quinolin-2(1H)-one]: less than 0.5 µM and less than 1 µM.
Consider `Cc1c(-c2n[nH]c3nc(N4CC[C@@H]5[C@H](C4)[C@@]5(CN)c4ccccc4F)cnc23)ccn2cnnc12` [Example 211, ((1S,6R,7R)-7-(2-fluorophenyl)-3-(3-(8-methyl-[1,2,4]triazolo[4,3-a]pyridin-7-yl)-1H-pyrazolo[3,4-b]pyrazin-6-yl)-3-azabicyclo[4.1.0]heptan-7-yl)methanamine], for which the IC50 in assay [1] is less than 0.5 µM; in assay [2] it was greater than 5 µM.
`CN(C)C(=O)c1ccc(-c2n[nH]c3nc(N4CC[C@@H]5[C@H](C4)[C@@]5(CN)c4ccccc4F)cnc23)c2cccnc12` [Example 212, 5-(6-((1S,6R,7R)-7-(aminomethyl)-7-(2-fluorophenyl)-3-azabicyclo[4.1.0]heptan-3-yl)-1H-pyrazolo[3,4-b]pyrazin-3-yl)-N,N-dimethylquinoline-8-carboxamide]: the IC50 in assay [1] is less than 0.5 µM; in assay [2], greater than 5 µM.
On the same counts, the results for `Cc1csc([C@@]2(CN)[C@@H]3CN(c4cnc5c(-c6ccc(F)c7ncccc67)n[nH]c5n4)C[C@@H]32)n1` [Example 213, ((1R,5S,6r)-3-(3-(8-fluoroquinolin-5-yl)-1H-pyrazolo[3,4-b]pyrazin-6-yl)-6-(4-methylthiazol-2-yl)-3-azabicyclo[3.1.0]hexan-6-yl)methanamine] are less than 0.5 µM and less than 1 µM.
The matching figures for `COc1ccc(-c2n[nH]c3nc(N4CC[C@@H]5[C@H](C4)[C@@]5(CN)c4ccccc4F)cnc23)nc1N` [Example 214, 6-(6-((1S,6R,7R)-7-(aminomethyl)-7-(2-fluorophenyl)-3-azabicyclo[4.1.0]heptan-3-yl)-1H-pyrazolo[3,4-b]pyrazin-3-yl)-3-methoxypyridin-2-amine]: less than 0.5 µM and greater than 5 µM.
The matching figures for `Cn1ccc(Oc2ccc(-c3n[nH]c4nc(N5CC[C@@H]6[C@H](C5)[C@@]6(CN)c5ccccc5F)cnc34)c(Cl)c2Cl)n1` [Example 215, ((1S,6R,7R)-3-(3-(2,3-dichloro-4-((1-methyl-1H-pyrazol-3-yl)oxy)phenyl)-1H-pyrazolo[3,4-b]pyrazin-6-yl)-7-(2-fluorophenyl)-3-azabicyclo[4.1.0]heptan-7-yl)methanamine]: less than 0.5 µM and less than 1 µM.
